Molecular target: T1, KSP(367H) (Homo sapiens, UniProt P52732)
T1 construct: Add 18.75 μl of 4 μM stock nucleotide-free KSP(367H)
T1 sequence (P52732 1-367 limits assumed): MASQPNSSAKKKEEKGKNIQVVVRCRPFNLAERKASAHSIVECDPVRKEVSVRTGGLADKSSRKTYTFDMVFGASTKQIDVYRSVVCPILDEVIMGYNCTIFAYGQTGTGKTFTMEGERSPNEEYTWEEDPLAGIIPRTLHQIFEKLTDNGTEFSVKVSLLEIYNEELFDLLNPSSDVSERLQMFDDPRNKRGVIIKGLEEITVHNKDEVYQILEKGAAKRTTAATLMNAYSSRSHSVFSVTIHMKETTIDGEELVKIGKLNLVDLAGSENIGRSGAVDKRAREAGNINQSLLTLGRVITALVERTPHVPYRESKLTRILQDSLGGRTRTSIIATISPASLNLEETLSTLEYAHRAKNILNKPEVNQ
Assay: Fluorescence of Trp127 of KSP -/+ inhibitors (in vitro binding assay for the novel KSP binding site)
Procedure: The binding of a ligand to the novel binding site of the instant invention and the formation of the novel binding pocket as a result can als6 be indirectly assessed by spectroscopically determining the shift in the fluorescence of the amino acid 127 tryptophan residue. Thus it has been discovered that the fluorescent emission of Trp127 is modulated when KSP is treated with one of the inhibitors described above in the presence of a nucleotide or nucleotides.
A further embodiment of the instant invention is an in vitro assay for the determination of binding of a test compound to the novel KSP binding site described herein. The assay comprises the steps of: • 1. contacting KSP with the test compound and a nucleotide and measuring the fluorescence of the mixture at the peak emission wavelength for Trp127 in KSP; • 2. contacting KSP with a nucleotide and measuring the fluorescence of the mixture at the peak emission wavelength for Trp127 in KSP; and • 3. comparing the fluorescence of the mixture of KSP, the test compound and the nucleotide with the fluorescence of the mixture of KSP with the nucleotide alone.
In another embodiment of the in vitro fluorescence assay the nucleotide is selected from ADP and AMPPNP (a non-hydrolysable analog of ATP, adenosine 5′-(β,γ-imido)triphosphate tetralithium salt hydrate).
• 2× kinesin buffer: 160 mM K-Hepes, 2 mM MgCl2, 2 mM EGTA, 2 mM DTT (added fresh daily), and 100 mM KCl, pH 6.8. • Nucleotide: nucleotide is resuspended to 200 mM in 50 mM K-Hepes (pH 6.8). • Nucleotide is diluted 1:1 with 200 MM MgCl2 to a stock concentration of 100 mM of 1:1 nucleotide:MgCl2. • Cuvette volume=300 μl Methods • 1) Add 281 μl of 1× kinesin buffer, ±nucleotide, and H2O (Nucleotide=none, 1 mM AMPPNP, or 1 mM ADP (final concentration)). • 2) Add 18.75 μl of 4 μM stock nucleotide-free KSP(367H). • 3) Add compound sequentially from DMSO stock (with all the volume of all additions ≦0.6 μl). • 4) Measure fluorescence after each addition (starting with buffer only). • 5) Example titration for Compound 8-1 with KSP(367H)ADP: 281 μl of 1× kinesin buffer+1 mM ADP: • add 250 nM KSP (18.75 μl of 4 uM nucleotide-free stock) • add 1 nM Compound 8-1 (1 nMf) (addition of 0.3 μl of 0.001 mM stock) • add 2 nM Compound 8-1 (3 nMf) (addition of 0.6 μl of 0.001 mM stock) • add 4 nM Compound 8-1 (7 nMf) (addition of 0.12 μl of 0.01 mM stock) • add 3 nM Compound 8-1 (10 nMf) (addition of 0.09 μl of 0.01 mM stock) • add 20 nM Compound 8-1 (30 nMf) (addition of 0.6 μl of 0.01 mM stock) • add 40 nM Compound 8-1 (70 nMf) (addition of 0.12 μl of 0.1 mM stock) • add 30 nM Compound 8-1 (100 nMf) (addition of 0.09 μl of 0.1 mM stock) • add 200 nM Compound 8-1 (300 nMf) (addition of 0.6 μl of 0.1 mM stock) • add 400 nM Compound 8-1 (700 nMf) (addition of 0.12 μl of 1 mM stock) • add 300 nM Compound 8-1 (1000 nMf) (addition of 0.09 μl of 1 mM stock) • add 2000 nM Compound 8-1 (3000 nMf) (addition of 0.6 μl of 1 mM stock). • 6) After each addition, measure steady-state fluorescence under the following conditions: • λex=[…], λem=342-346 nm, band width=3 nm ex/3 nm em, wavelength increment=0.5 nm, integration time=2 s. • 7) Repeat the same titration series: • in the absence of KSP (to determine compound-related background), and in the absence of KSP, but in the presence of 1 μM L-tryptophan (to determine compound-related effects on the amino acid itself). Calculations
At the peak emission wavelength for W127 in KSP(367H) (=344 nm) measure the compound emission in kinesin buffer as a function of [compound]; measure fluorescence of L-tryptophan as a function of [compound]; measure fluorescence of KSP(367H) as a function of [compound]; correct KSP(367H) fluorescence for its decrease over time (due to losses of protein to the cuvette); subtract compound emission from L-tryptophan emission; subtract compound emission from KSP(367H) emission. […]

[1] = in the absence of the nucleotide
[2] = in the presence of ADP or AMPPNP

SMILES | fluorescence of Trp127 [1] | fluorescence of Trp127 [2]
CCOC(=O)C1=C(C)NC(=S)NC1c1cccc(O)c1 (single isomer, unassigned; (+)) [Compound 5-2b, (+)-4-(3-Hydroxyphenyl)-6-methyl-2-thioxo-1,2,3,4-tetrahydro-4H-pyrimidin-5-carboxylic acid ethyl ester, reference compound] | does not cause a decrease | dose dependent decrease
CCC(c1nc2sccc2c(=O)n1Cc1ccccc1)N(CCN(C)C)Cc1ccc(Br)cc1 (stereo not drawn) [Compound 8-1, 3-benzyl-2-(1-{(4-bromobenzyl)[2-(dimethylamino)ethyl]amino}propyl)thieno[2,3-d]pyrimidin-4(3H)-one] | does not cause a decrease | dose dependent decrease
CC(=O)N1N=C(c2ccccc2Cl)CC1c1cccc(O)c1 (stereo not drawn) [Compound 1-7, 3-[1-acetyl-3-(2-chlorophenyl)-4,5-dihydro-1H-pyrazol-5-yl]phenol] | does not cause a decrease | dose dependent decrease

Reference: patent US20060134767A1, “Mitotic kinesin binding site” (priority 2002, published 2006)
